# Tests used:
# SNU-C1 = assay: cells; type: cell-based; conditions: for Basal_Viability ATP SNU-C1 IC50/EC50: assay number 30
# hJAK2 = target: T1, hJAK2 (Homo sapiens, UniProt O60674); assay: Cerep LANCE kinase assay hJAK2 (S1 assay 33); type: biochemical; conditions: for hJAK2 LANCE IC50/EC50: assay number 33
# T1 construct: purchased Cerep (LANCE kinase assay platform, contract assay)
# [1] = tested on: endothelial tube formation in co-cultures of ECFCs and ADSCs treated with VEGF; assay: cells; type: cell-based, human
# RKO = assay: cells; type: cell-based; conditions: for Basal_Viability ATP RKO IC50/EC50: assay number 29
# HeLa cells = assay: cells; type: cell-based; conditions: for Hela CellCycMod PI 2N IC50/EC50: assay number 14; for Hela CellCycMod PI 4N IC50/EC50: assay number 16; for Hela CellCycMod PI MI IC50/EC50: assay number 17; for Hela CellCycMod PI Cell Number IC50/EC50: assay number 18; for Hela CellCycMod PI S Phase IC50/EC50: assay number 15
# HCT116 = assay: cells; type: cell-based; conditions: basal; for Basal_Viability ATP HCT116 IC50/EC50: assay number 25
# hp70S6K1 (RPS6KB1) = target: T2, hp70S6K1 (RPS6KB1) (Homo sapiens, UniProt P23443); assay: Cerep LANCE kinase assay hp70S6K1 (S1 assay 31); type: biochemical; conditions: for hp70S6K1 LANCE IC50/EC50: assay number 31
# T2 construct: purchased Cerep (LANCE kinase assay platform, contract assay)
# [2] = tested on: ECFC/ADSC co-culture cell nuclei number
# SW480 = assay: cells; type: cell-based; conditions: for Basal_Viability ATP SW480 IC50/EC50: assay number 24
# [3] = tested on: nuclear β-catenin in C2C12 cells; assay: cells; type: cell-based; conditions: concentration response; for WntCondMedia_bCatenin C2C12 IC50/EC50: assay number 5
# [4] = tested on: HCT116 cells treated with a GSK3β inhibitor; assay: cells; type: cell-based; conditions: for GSK3b inh pretreated_Viability ATP HCT116 IC50/EC50: assay number 26, GSK3b inhibitor pretreated
# hKDR = target: T3, hKDR (Homo sapiens, UniProt P35968); assay: Cerep LANCE kinase assay hKDR (S1 assay 32); type: biochemical; conditions: for hKDR LANCE IC50/EC50: assay number 32
# T3 construct: purchased Cerep (LANCE kinase assay platform, contract assay)
# HT-29 = assay: cells; type: cell-based; conditions: for Basal_Viability ATP HT-29 IC50/EC50: assay number 28
# [5] = tested on: alkaline phosphatase (ALP) activity in C2C12 cells; type: cell-based; conditions: concentration response; for WntCondMedia_Alk Phos C2C12 IC50/EC50: assay number 6
# hFLT3 = target: T4, hFLT3 (Homo sapiens, UniProt P36888); assay: Cerep LANCE kinase assay hFLT3 (S1 assay 35); type: biochemical; conditions: for hFLT3 LANCE IC50/EC50: assay number 35
# T4 construct: purchased Cerep (LANCE kinase assay platform, contract assay)
# Colo320 = assay: cells; type: cell-based; conditions: for Basal_Viability ATP Colo 320 IC50/EC50: assay number 27
# hGSK3b = target: T5, hGSK3b (Homo sapiens, UniProt P49841); assay: Cerep LANCE kinase assay hGSK3b (S1 assay 34); type: biochemical; conditions: for hGSK3b LANCE IC50/EC50: assay number 34
# T5 construct: purchased Cerep (LANCE kinase assay platform, contract assay)
# DLD-1 = assay: cells; type: cell-based; conditions: for Basal_Viability ATP DLD-1 IC50/EC50: assay number 23
# T3 sequence (P35968 20-1356): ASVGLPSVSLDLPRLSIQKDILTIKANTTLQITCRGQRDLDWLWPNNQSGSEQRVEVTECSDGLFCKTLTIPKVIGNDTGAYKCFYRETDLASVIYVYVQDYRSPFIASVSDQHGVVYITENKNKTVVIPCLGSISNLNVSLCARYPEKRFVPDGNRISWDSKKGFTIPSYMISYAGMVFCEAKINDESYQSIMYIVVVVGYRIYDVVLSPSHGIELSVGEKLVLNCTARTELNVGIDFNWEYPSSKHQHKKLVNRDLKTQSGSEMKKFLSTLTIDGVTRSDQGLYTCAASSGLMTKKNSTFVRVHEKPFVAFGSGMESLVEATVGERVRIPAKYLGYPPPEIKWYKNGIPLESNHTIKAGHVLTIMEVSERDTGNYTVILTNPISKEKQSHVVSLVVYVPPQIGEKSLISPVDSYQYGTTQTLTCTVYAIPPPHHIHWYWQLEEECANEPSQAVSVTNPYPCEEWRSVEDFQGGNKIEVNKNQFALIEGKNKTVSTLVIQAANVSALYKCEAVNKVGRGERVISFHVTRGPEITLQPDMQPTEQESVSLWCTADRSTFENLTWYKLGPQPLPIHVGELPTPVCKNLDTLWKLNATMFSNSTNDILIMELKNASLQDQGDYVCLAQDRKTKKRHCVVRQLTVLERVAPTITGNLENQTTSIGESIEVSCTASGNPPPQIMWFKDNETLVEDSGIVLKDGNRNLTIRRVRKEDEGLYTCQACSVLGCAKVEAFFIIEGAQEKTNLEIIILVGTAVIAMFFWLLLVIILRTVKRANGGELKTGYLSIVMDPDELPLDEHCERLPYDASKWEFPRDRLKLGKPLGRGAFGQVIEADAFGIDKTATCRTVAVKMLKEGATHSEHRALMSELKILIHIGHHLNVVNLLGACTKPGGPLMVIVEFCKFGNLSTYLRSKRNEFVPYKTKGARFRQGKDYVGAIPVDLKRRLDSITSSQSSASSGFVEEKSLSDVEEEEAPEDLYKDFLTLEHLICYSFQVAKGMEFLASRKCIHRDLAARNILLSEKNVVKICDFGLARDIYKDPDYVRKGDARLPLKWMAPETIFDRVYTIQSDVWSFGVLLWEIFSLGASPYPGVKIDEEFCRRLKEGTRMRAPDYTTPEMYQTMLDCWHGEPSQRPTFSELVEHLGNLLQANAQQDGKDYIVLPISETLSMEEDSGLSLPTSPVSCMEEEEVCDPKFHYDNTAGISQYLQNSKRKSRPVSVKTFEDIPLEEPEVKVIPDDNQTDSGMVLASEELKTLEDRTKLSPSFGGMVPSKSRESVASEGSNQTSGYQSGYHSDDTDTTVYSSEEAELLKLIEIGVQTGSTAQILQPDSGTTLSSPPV
# T1 sequence (O60674 whole entry): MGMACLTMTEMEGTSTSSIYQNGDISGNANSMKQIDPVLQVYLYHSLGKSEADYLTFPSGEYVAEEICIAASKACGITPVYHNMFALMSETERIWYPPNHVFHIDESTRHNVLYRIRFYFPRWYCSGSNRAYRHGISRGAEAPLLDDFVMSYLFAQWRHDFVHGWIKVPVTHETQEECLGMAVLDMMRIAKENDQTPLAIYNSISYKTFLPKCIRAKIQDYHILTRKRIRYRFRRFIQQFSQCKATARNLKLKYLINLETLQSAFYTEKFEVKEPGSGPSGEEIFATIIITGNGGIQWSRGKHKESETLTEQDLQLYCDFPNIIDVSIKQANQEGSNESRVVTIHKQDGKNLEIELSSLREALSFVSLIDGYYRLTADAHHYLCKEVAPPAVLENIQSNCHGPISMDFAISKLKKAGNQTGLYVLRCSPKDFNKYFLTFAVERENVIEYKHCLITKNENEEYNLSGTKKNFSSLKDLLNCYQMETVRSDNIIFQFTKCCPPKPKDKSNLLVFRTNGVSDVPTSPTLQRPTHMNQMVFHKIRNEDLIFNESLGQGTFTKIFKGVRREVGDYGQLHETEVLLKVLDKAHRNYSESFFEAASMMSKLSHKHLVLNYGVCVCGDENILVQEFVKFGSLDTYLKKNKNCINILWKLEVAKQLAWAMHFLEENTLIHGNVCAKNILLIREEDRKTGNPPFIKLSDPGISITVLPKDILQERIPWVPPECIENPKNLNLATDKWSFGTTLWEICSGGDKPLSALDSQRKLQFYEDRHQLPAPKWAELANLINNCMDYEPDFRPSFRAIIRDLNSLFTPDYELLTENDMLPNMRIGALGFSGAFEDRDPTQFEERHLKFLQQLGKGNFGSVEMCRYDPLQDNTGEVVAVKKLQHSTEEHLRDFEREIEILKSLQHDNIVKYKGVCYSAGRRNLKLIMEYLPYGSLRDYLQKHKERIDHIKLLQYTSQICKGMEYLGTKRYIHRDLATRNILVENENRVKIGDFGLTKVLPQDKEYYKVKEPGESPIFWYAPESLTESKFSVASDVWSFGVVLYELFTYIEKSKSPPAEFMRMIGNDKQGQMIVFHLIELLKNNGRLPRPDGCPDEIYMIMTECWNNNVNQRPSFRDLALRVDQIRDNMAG
# T5 sequence (P49841 whole entry): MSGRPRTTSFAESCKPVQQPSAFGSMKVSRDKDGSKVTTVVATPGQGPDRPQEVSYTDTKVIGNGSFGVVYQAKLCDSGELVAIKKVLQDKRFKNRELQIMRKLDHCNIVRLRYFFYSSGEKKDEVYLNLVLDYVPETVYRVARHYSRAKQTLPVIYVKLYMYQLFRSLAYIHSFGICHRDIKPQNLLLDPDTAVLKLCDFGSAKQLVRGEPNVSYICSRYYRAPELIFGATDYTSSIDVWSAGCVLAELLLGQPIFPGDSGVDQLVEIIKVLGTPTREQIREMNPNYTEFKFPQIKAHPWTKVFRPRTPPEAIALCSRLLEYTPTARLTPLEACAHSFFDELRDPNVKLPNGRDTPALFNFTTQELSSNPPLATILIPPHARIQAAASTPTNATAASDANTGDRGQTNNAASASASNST
# T4 sequence (P36888 27-993): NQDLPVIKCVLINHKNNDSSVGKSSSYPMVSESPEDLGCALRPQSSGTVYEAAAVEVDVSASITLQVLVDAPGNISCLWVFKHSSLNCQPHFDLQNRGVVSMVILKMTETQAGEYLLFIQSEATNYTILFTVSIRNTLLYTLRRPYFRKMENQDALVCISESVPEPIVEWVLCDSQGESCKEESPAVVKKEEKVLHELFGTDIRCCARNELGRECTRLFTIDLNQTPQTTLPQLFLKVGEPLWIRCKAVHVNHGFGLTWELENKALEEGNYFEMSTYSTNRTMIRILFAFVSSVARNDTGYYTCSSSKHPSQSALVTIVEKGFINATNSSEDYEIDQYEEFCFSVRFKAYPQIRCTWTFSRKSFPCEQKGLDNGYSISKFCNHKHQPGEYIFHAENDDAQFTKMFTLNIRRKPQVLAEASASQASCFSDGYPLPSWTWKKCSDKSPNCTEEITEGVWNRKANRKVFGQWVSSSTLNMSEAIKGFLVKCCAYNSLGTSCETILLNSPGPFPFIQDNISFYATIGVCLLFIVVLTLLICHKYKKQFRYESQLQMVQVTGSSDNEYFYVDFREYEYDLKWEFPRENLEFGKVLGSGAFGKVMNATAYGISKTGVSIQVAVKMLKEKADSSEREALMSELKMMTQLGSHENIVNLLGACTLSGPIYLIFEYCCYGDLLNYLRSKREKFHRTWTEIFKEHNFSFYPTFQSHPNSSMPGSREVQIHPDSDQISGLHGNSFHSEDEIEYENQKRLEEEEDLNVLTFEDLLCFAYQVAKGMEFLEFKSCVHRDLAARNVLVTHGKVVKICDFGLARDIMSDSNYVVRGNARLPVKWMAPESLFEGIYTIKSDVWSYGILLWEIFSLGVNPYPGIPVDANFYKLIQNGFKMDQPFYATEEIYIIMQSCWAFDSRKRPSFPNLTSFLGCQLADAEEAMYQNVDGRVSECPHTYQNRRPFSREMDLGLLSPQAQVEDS
# T2 sequence (P23443 whole entry): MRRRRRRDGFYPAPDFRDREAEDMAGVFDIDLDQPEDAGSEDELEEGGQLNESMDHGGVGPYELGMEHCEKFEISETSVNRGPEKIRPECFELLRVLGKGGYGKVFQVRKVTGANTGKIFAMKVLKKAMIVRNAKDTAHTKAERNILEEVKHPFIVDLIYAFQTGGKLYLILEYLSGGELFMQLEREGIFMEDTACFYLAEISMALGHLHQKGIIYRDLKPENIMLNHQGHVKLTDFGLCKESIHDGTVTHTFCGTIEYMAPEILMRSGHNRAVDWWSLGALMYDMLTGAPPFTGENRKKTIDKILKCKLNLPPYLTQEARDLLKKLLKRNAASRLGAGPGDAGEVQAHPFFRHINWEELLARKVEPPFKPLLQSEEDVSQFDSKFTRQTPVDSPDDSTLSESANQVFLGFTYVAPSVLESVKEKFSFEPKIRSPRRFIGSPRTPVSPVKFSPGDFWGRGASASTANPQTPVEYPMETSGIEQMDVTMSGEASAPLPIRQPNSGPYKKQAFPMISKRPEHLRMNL
structure (smiles),measurement,setting,value
Cc1nc2ccc(CN(C)c3ccc(C(=O)N[C@@H](CCC(=O)O)C(=O)O)s3)cc2c(=O)[nH]1 [NCGC00229704-01],Basal_Viability ATP SNU-C1 IC50/EC50,SNU-C1,> 20 µM
same,hJAK2 LANCE IC50/EC50,hJAK2,> 20 µM
same,VEGF_ADSC\ECFC Angio CD31 TubeArea IC50/EC50,[1],0.3544 µM
same,Basal_Viability ATP RKO IC50/EC50,RKO,0.00288 µM
same,Hela CellCycMod PI 2N IC50/EC50,HeLa cells; 2N,> 10 µM
same,Hela CellCycMod PI 4N IC50/EC50,HeLa cells; 4N,> 10 µM
same,Hela CellCycMod PI MI IC50/EC50,HeLa cells; MI,> 10 µM
same,Hela CellCycMod PI Cell Number IC50/EC50,HeLa cells,> 10 µM
same,Basal_Viability ATP HCT116 IC50/EC50,HCT116,0.00424 µM
same,hp70S6K1 LANCE IC50/EC50,hp70S6K1 (RPS6KB1),> 20 µM
same,VEGF_ADSC\ECFC Angio Hoechst NucArea IC50/EC50,[2],> 10 µM
same,Basal_Viability ATP SW480 IC50/EC50,SW480,0.001 µM
same,WntCondMedia_bCatenin C2C12 IC50/EC50,[3],0.0127 µM
same,GSK3b inh pretreated_Viability ATP HCT116 IC50/EC50,[4],0.0023 µM
same,hKDR LANCE IC50/EC50,hKDR,> 20 µM
same,Basal_Viability ATP HT-29 IC50/EC50,HT-29,> 20 µM
same,WntCondMedia_Alk Phos C2C12 IC50/EC50,[5],0.0042 µM
same,hFLT3 LANCE IC50/EC50,hFLT3,> 20 µM
same,Basal_Viability ATP Colo 320 IC50/EC50,Colo320,> 20 µM
same,hGSK3b LANCE IC50/EC50,hGSK3b,3.99 µM
same,Basal_Viability ATP DLD-1 IC50/EC50,DLD-1,> 20 µM
O=c1c(-c2ccccc2)c1-c1ccccc1 [NCGC00166113-04],"IC50/EC50, Basal_Viability ATP SNU-C1 (assay number 30)",SNU-C1; basal,> 20 µM
same,"IC50/EC50, hJAK2 LANCE (assay number 33)",hJAK2,> 20 µM
same,"IC50/EC50, VEGF_ADSC\ECFC Angio CD31 TubeArea (assay number 2)",[1],3.8353 µM
same,"IC50/EC50, Basal_Viability ATP RKO (assay number 29)",RKO; basal,> 20 µM
same,"IC50/EC50, Hela CellCycMod PI 2N (assay number 14)",HeLa cells; 2N,> 10 µM
same,"IC50/EC50, Hela CellCycMod PI 4N (assay number 16)",HeLa cells; 4N,> 10 µM
same,"IC50/EC50, Hela CellCycMod PI Cell Number (assay number 18)",HeLa cells; Cell Number,1.6859 µM
same,"IC50/EC50, Hela CellCycMod PI MI (assay number 17)",HeLa cells; MI,> 10 µM
same,"IC50/EC50, Basal_Viability ATP HCT116 (assay number 25)",HCT116,> 20 µM
same,"IC50/EC50, hp70S6K1 LANCE (assay number 31)",hp70S6K1 (RPS6KB1),> 20 µM
same,"IC50/EC50, VEGF_ADSC\ECFC Angio Hoechst NucArea (assay number 3)",[2],6.7548 µM
same,"IC50/EC50, Basal_Viability ATP SW480 (assay number 24)",SW480; basal,> 20 µM
same,"IC50/EC50, WntCondMedia_bCatenin C2C12 (assay number 5)",[3],> 20 µM
same,"IC50/EC50, GSK3b inh pretreated_Viability ATP HCT116 (assay number 26)",[4]; GSK3b inh pretreated,7.707 µM
same,"IC50/EC50, hKDR LANCE (assay number 32)",hKDR,> 20 µM
same,"IC50/EC50, Basal_Viability ATP HT-29 (assay number 28)",HT-29; basal,> 20 µM
same,"IC50/EC50, WntCondMedia_Alk Phos C2C12 (assay number 6)",[5],3.6201 µM
same,"IC50/EC50, hFLT3 LANCE (assay number 35)",hFLT3,> 20 µM
same,"IC50/EC50, Basal_Viability ATP Colo 320 (assay number 27)",Colo320; basal,3.1012 µM
same,"IC50/EC50, hGSK3b LANCE (assay number 34)",hGSK3b,> 20 µM
same,"IC50/EC50, Basal_Viability ATP DLD-1 (assay number 23)",DLD-1; basal,4.208 µM
Cc1cc(=O)c2c(O)c3c(O)cc(=O)c4c3c3c(cc(O)c1c23)C(C)(C)C=4O [NCGC00160275-03],Basal_Viability ATP SNU-C1 IC50/EC50,SNU-C1; basal,0.3321 µM
same,hJAK2 LANCE IC50/EC50,hJAK2,> 20 µM
same,VEGF_ADSC\ECFC Angio CD31 TubeArea IC50/EC50,[1],0.1005 µM
same,Basal_Viability ATP RKO IC50/EC50,RKO; basal,0.0754 µM
same,Hela CellCycMod PI 2N IC50/EC50,HeLa cells; 2N,> 10 µM
same,Hela CellCycMod PI S Phase IC50/EC50,HeLa cells,> 10 µM
same,Hela CellCycMod PI 4N IC50/EC50,HeLa cells; 4N,> 10 µM
same,Hela CellCycMod PI MI IC50/EC50,HeLa cells; MI,> 10 µM
same,Hela CellCycMod PI Cell Number IC50/EC50,HeLa cells,1.0003 µM
same,Basal_Viability ATP HCT116 IC50/EC50,HCT116,0.07747 µM
same,hp70S6K1 LANCE IC50/EC50,hp70S6K1 (RPS6KB1),> 20 µM
same,VEGF_ADSC\ECFC Angio Hoechst NucArea IC50/EC50,[2],2.074 µM
same,Basal_Viability ATP SW480 IC50/EC50,SW480; basal,0.05797 µM
same,WntCondMedia_bCatenin C2C12 IC50/EC50,[3],1.0715 µM
same,GSK3b inh pretreated_Viability ATP HCT116 IC50/EC50,[4],0.05735 µM
same,hKDR LANCE IC50/EC50,hKDR,> 20 µM
same,Basal_Viability ATP HT-29 IC50/EC50,HT-29; basal,3.006 µM
same,WntCondMedia_Alk Phos C2C12 IC50/EC50,[5],2.9111 µM
same,hFLT3 LANCE IC50/EC50,hFLT3,1.97 µM
same,Basal_Viability ATP Colo 320 IC50/EC50,Colo320; basal,0.08199 µM
same,hGSK3b LANCE IC50/EC50,hGSK3b,6.9 µM
same,Basal_Viability ATP DLD-1 IC50/EC50,DLD-1; basal,0.07089 µM
CC[C@]1(O)C[C@@H]2CN(CCc3c([nH]c4ccccc34)[C@@](C(=O)OC)(c3cc4c(cc3OC)N(C)[C@H]3[C@@](O)(C(=O)OC)[C@H](OC(C)=O)[C@]5(CC)C=CCN6CC[C@]43[C@@H]65)C2)C1.O=S(=O)(O)O [NCGC00263548-01],Basal_Viability ATP SNU-C1 IC50/EC50,SNU-C1,> 20 µM
same,hJAK2 LANCE IC50/EC50,hJAK2,> 20 µM
same,VEGF_ADSC\ECFC Angio CD31 TubeArea IC50/EC50,[1],0.0023 µM
same,Basal_Viability ATP RKO IC50/EC50,RKO,0.001 µM
same,Hela CellCycMod PI 2N IC50/EC50,HeLa cells; 2N,0.0033 µM
same,Hela CellCycMod PI S Phase IC50/EC50,HeLa cells,> 10 µM
same,Hela CellCycMod PI 4N IC50/EC50,HeLa cells; 4N,0.0032 µM
same,Hela CellCycMod PI MI IC50/EC50,HeLa cells; MI,0.0032 µM
same,Hela CellCycMod PI Cell Number IC50/EC50,HeLa cells,0.0026 µM
same,Basal_Viability ATP HCT116 IC50/EC50,HCT116,0.001 µM
same,hp70S6K1 LANCE IC50/EC50,hp70S6K1 (RPS6KB1),> 20 µM
same,VEGF_ADSC\ECFC Angio Hoechst NucArea IC50/EC50,[2],> 10 µM
same,WntCondMedia_bCatenin C2C12 IC50/EC50,[3],0.0058 µM
same,GSK3b inh pretreated_Viability ATP HCT116 IC50/EC50,[4],0.001 µM
same,hKDR LANCE IC50/EC50,hKDR,> 20 µM
same,Basal_Viability ATP HT-29 IC50/EC50,HT-29,0.001 µM
same,WntCondMedia_Alk Phos C2C12 IC50/EC50,[5],0.0089 µM
same,hFLT3 LANCE IC50/EC50,hFLT3,> 20 µM
same,Basal_Viability ATP Colo 320 IC50/EC50,Colo320,0.001 µM
same,hGSK3b LANCE IC50/EC50,hGSK3b,> 20 µM

# From publication PMC4503722, “Novel Phenotypic Outcomes Identified for a Public Collection of Approved Drugs from a Publicly Accessible Panel of Assays” (PLoS ONE, 2015)
